The conditions of series [1]: cited from earlier work.
Series [2] has as its target PCP site of the NMDA receptor. Type of series: binding. Particulars: read-out: [3H]TCP Ki; [3H]TCP as radioligand; rat brain membrane suspensions; mean from two experiments.

`CN(C(=N)Nc1cccc2ccccc12)c1cccc(I)c1` [Ligand 1]: the “measured logD” value in series [1] is on record as 2.19.

Turning to `CN(C(=N)Nc1cccc2ccccc12)c1cccc(Cl)c1F` [Ligand 34], in series [2], the Ki came out at 0.701 µM.

The record behind these values is publication PMC4293695 (Bioorganic & medicinal chemistry letters, 2014).
